Assay results reported in paper PMC11447909, “Substrate Specificity of a Methyltransferase Involved in the Biosynthesis of the Lantibiotic Cacaoidin” (Biochemistry, 2024).
Bridge positions count the residues as written; N and C are the ends. Square brackets hold non-standard residues; d marks the D form. Ends that are not written are not given here. Abu = CC[C@H](N)C(=O)O; Dhb = C/C=C(\N)C(=O)O; Dha = C=C(N)C(=O)O

Experiments:
CaoSC = test: In vitro methylation by His6-CaoSC with SAM (MALDI-TOF MS); assay type: biochemical, Streptomyces cacaoi CA-170360; conditions: 50 μM peptide, 5 μM His6-CaoSC, 1 mM SAM, 20 mM HEPES pH 7.5, overnight, 37 °C
Protocol: For methylation, the 50 μL assay contained 50 μM peptide, 5 μM His6–CaoSC, and 1 mM SAM in 20 mM HEPES buffer (pH 7.5). After overnight reaction at 37 °C, the proteins were denatured by adding 5 μL of 2% TFA and centrifuged for 10 min at 4500 rpm in a microcentrifuge at room temperature. The supernatant was desalted using an EMD Millipore C18 ziptip, and the peptide was eluted and analyzed by MALDI-TOF MS as described above.

[1] = target: His6-CaoSC (methyltransferase of the cacaoidin biosynthetic gene cluster) (Streptomyces cacaoi CA-170360); test: SEC; analytical SEC of purified His6-tagged CaoSC

| Substance | methylation by CaoSC (number of methyl groups installed at N-terminus) (CaoSC) | stoichiometry N [1] |
| --- | --- | --- |
| nisin (I[Dhb]AI[Dha]LC[Abu]PGCK[Abu]GALMGCNMK[Abu]A[Abu]CHCSIHV[Dha]K; thioether 8-11, 13-19, 23-26, 25-28, 3-7; not fully specified (residues 7, 11, 19, 26, 28); UniProt P13068 24-57, looked up) [class I lanthipeptide, 34 residues, three dehydroamino acids, five Lan/MeLan rings; purchased from Sigma-Aldrich] | monomethylated |  |
| His6-CaoSC (methyltransferase of the cacaoidin biosynthetic gene cluster) (enzyme) |  | 2 |
| A[Dha]APATIK [synthetic 8-residue peptide with a dehydroamino acid at position 2] | not accepted |  |
